The values below come from patent US20130345243A1, “1H-PYROLLO[3,2-D]PYRIMIDINEDIONE DERIVATIVES” (GLAXOSMITHKLINE LLC, priority 2011, published 2013).

The subject of one assay is ob/ob and db/db mice. As to conditions: 8 day administration; cited from earlier work.
A further assay concerns Human recombinant AMPK. The experiment in a line: AMPK Enzymatic Assay (Z'Lyte FRET). In kind it is biochemical. As to conditions: ATP 100 μM, peptide 2 μM, means of at least 2 independent experiments. Here is the method: Human recombinant AMPK (Invitrogen #PV4673 & #PV4675) is used in a FRET assay format (Z'Lyte—Invitrogen). Assay conditions are as follow: ATP 100 μM, peptide (Invitrogen # PR8650) 2 μM, 1% final DMSO in Z'Lyte kinase buffer. Reaction is initiated by addition of 0.2-0.8 ng of AMPK and incubated for 1-hour @ 30° C. A further 1-hour incubation @ 30° C. with the development reagent (Invitrogen # PR5194) is performed. FRET signal is then measured and converted to “% peptide phosphorylation” according to Z'Lyte given calculation procedure. Evaluation of compounds is carried out using concentration-response curves. Final data are expressed in “% activation” calculating the ratio of “% peptide phosphorylation” between compound-condition and basal-condition. Alternatively pEC200 (−Log(compound concentration leading to a 2-fold AMPK activity increase)) is produced through fitting of the concentration-response curves. All data are means of at least 2 independent experiments.

With `NC(=O)c1ncn([C@@H]2O[C@H](CO)[C@@H](O)[C@H]2O)c1N` [AICAR], the reduces blood glucose in the assay on ob/ob and db/db mice is 35%.
For the compound `Nc1nc(-c2ccc(-n3c(Cl)cc4[nH]c(=O)n(-c5ccccc5F)c(=O)c43)cc2)cs1` [Example 12, 5-[4-(2-Amino-1,3-thiazol-4-yl)phenyl]-6-chloro-3-(2-fluorophenyl)-1H-pyrrolo[3,2-d]pyrimidine-2,4(3H,5H)-dione], in the assay with Human recombinant AMPK, the pEC50 – broadly, −log10 of the EC50, conventionally taken in molar units – came out at 6.1.
Same read-out and setting: in the case of `Cl.Nc1nc(-c2ccc(-n3c(Cl)cc4[nH]c(=O)n(-c5cccc(C(=O)O)c5)c(=O)c43)cc2)cs1` [Example 11, 3-(5-(4-(2-Aminothiazol-4-yl)phenyl)-6-chloro-2,4-dioxo-1H-pyrrolo[3,2-d]pyrimidin-3(2H,4H,5H)-yl)benzoic acid hydrochloride] it was 6.2.
